How the values were obtained:
[1] = system: WiDr-R cells (colon cancer cells, SF3B1 R1074H mutation); conditions: cited from earlier work
[2] = system: reporter gene controlled by human VEGF promoter; conditions: read-out: IC50, VEGF-promoted gene expression; cited from earlier work
U251 human glioma cells = U251 human glioma cells in vitro; read-out: IC50, glioma cell proliferation; cited from earlier work
[3] = pH stability measurement (UPLC, 0.1 N HCl); type: physicochemical; conditions: buffer, 24 h, 148 µM, pH 1
Method: Compounds were provided in 96-well plates and tested in triplicate. Four microliters of a 10 mM stock solution of compound in DMSO were distributed into each of three wells. The plate was stored at or below −20° C. until the day of the analysis. Methanol (HPLC grade) and 0.1 N HCl (EMD catalog HX0603A-6) were used for dilutions. Acetonitrile (HPLC grade), water (Milli-Q filtered), trifluoroacetic acid (spectral grade) and 0.2M phosphate buffer (Wako, catalog no. 163-14471) were used to prepare the mobile phase for the two analyses.
Stability data was obtained using a Waters Acquity UPLC equipped with a UV detector (Waters TUV) and single quadrupole MS detector (Waters SQD). The 96-well plate containing the compound(s) of interest was(were) removed from the freezer and allowed to warm to room temperature for one hour. The UPLC was primed, equilibrated and the system performance was verified by injecting a standard. After 1 hour, each of the three wells was diluted with 266 μL 0.1 N HCl to give pH=1. The plate was covered and placed on a shaker (Eppindorf Thermomixer R) for 45 minutes at 600 rpm. The plate was removed from the shaker, and the contents of each well were filtered through a filtration plate (Millipore catalog no. MSSLBPC50) by vacuum and injected into the UPLC. After approximately 24 hours, the contents of the wells were re-injected into the UPLC.
Stability in the various buffers was measured by comparing the peak area- % of the analyte in methanol versus the peak area- % of the analyte at the same retention time in 0.1 N HCl buffer in the 24 hr time point injection.

[4] = patients; administered as intravenous infusion; cited from earlier work

## Pladienolide B
[1]
  resistance of WiDr-R cells in terms of growth inhibition: resistant to pladienolide B in terms of growth inhibition
[2]
  IC50: 1.8 nM
U251 human glioma cells
  IC50: 3.5 nM

## CCC(O)C(C)C1OC1CC(C)(O)/C=C/C=C(\C)C1OC(=O)CC(O)CCC(C)(O)C(OC(=O)N2CCN(C3CCCCCC3)CC2)/C=C/C1C (centres unmarked) [Compound E7107, (8E,12E,14E)-7-((4-Cycloheptylpiperazin-1-yl)carbonyl)oxy-3,6,16,21-tetrahydroxy-6,10,12,16,20-pentamethyl-18,19-epoxytricosa-8,12,14-trien-11-olide, reference compound]
[3]
  % parent remaining (pH = 1, 24 hours): 44%
[4]
  oral bioavailability: insufficient oral bioavailability

Source: US9481669B2, “Pladienolide pyridine compounds and methods of use” (Eisai R&D Management Co., Ltd., priority 2014, dated 2016)
